The source of these data is ChEMBL document CHEMBL1125158, “A model for compounds active against human rhinovirus-14 based on X-ray crystallography data” (1990).

≈ marks a conversion by molar mass, not a printed value. Calls of active or inactive are those of the source. No cut-off for these calls is given here.

In the first experiment the test system is rhinovirus B14. Kind of experiment: In vitro inhibitory activity against human rhinovirus-14 was determined. Particulars: Rhinovirus B. The experiment is classed as functional.
With `Cc1cc(CCCCCOc2ccc(C3=NCCO3)cc2)on1`, the MIC was 1.27 µM (≈ 0.399 µg/mL).

A further experiment has as its system rhinovirus B14. The experiment in a line: In vitro minimum inhibitory concentration for the inhibition of human rhinovirus-14 replication. The experiment is classed as functional.
Conditions: not given
Turning to `Cc1cc(CCCCOc2ccc(C3=NCCO3)cc2)on1`, the MIC result is “inactive”.

Still in this experiment, the particulars now being: Rhinovirus B.
As for `CCCCc1cc(CCCCCOc2ccc(C3=NCCO3)cc2)on1`, the MIC is 0.56 µM (≈ 0.2 µg/mL).
As for `Cc1cc(CCCCCCCOc2ccc(C3=NC(C)(C)CO3)cc2)on1`, the MIC was found to be 0.16 µM (≈ 0.0593 µg/mL).
Compound `Cc1cc(CCCCCOc2ccc(C3=NCCO3)cc2Cl)on1` returned an MIC of 2.41 µM (≈ 0.841 µg/mL).
On the same count and under the same terms, for `Cc1cc(CCCCCCOc2ccc(C3=NCCO3)cc2Cl)on1` the value was 3.86 µM (≈ 1.4 µg/mL); for `OCCOCOCc1cc(CCCCCCCOc2c(Cl)cc(C3=NCCO3)cc2Cl)on1`, 0.06 µM (≈ 0.0301 µg/mL); for `Cc1cc(CCCCCCCOc2ccc(C3=NCCO3)cc2Cl)on1`, 1.06 µM (≈ 0.399 µg/mL).
Still for that read-out and setting: under `CCCc1cc(CCCCCOc2ccc(C3=NCCO3)cc2)on1` stands 0.16 µM (≈ 0.0548 µg/mL); under `Cc1cc(CCCCCCCOc2ccc(C3=NC(C)CO3)cc2Cl)on1` (centres undefined), 2.4 µM (≈ 0.938 µg/mL).
Same read-out and setting: under `CC[C@H]1COC(c2ccc(OCCCCCCCc3cc(C)no3)cc2)=N1` stands 0.023 µM (≈ 0.00852 µg/mL); under `Cc1cc(CCCCCOc2ccc(C3=NCCO3)cc2)on1`, 0.51 µM (≈ 0.16 µg/mL); under `Cc1cc(CCCCCOc2ccc(C3=NC(C)CO3)cc2)on1` (centres undefined), 0.7 µM (≈ 0.23 µg/mL).
In the case of `Cc1cc(CCCCCCCOc2ccc(C3=NC(C)CO3)cc2)on1` (centres undefined), the MIC worked out at 0.05 µM (≈ 0.0178 µg/mL).
The same measure, in the same setting: under `Cc1cc(CCCCCCCOc2ccc(C3=NC(CO)CO3)cc2)on1` (centres undefined) stands 0.16 µM (≈ 0.0596 µg/mL); under `Cc1cc(CCCCCCCCOc2ccc(C3=NCCO3)cc2)on1`, 3.92 µM (≈ 1.4 µg/mL).
Still for that read-out and setting: under `Cc1cc(CCCCOc2ccc(C3=NCCO3)cc2Cl)on1` stands 9.2 µM (≈ 3.08 µg/mL); under `CCc1cc(CCCCCOc2ccc(C3=NCCO3)cc2)on1`, 0.43 µM (≈ 0.141 µg/mL).
`Cc1cc(CCCCCOc2ccc(-c3nc(C)c(C)s3)cc2)on1` had an MIC of 0.14 µM (≈ 0.0499 µg/mL).
Same read-out and setting: under `Cc1cc(CCCCCCOc2ccc(C3=NCCO3)cc2)on1` stands 2.9 µM (≈ 0.952 µg/mL).
Still for that read-out and setting: for `Cc1cc(CCCCCCCOc2ccc(C3=NCCO3)cc2)on1` [DISOXARIL] the value was 0.41 µM (≈ 0.14 µg/mL); for `Cc1cc(CCCCCCCCOc2ccc(C3=NCCO3)cc2Cl)on1`, 14.3 µM (≈ 5.6 µg/mL).

A further experiment concerns rhinovirus B14. Kind of experiment: In vitro minimum inhibitory concentration for the inhibition of human rhinovirus-14 (HRV-14) replication by binding to viral capsid; NA= inactive at the 10 umol. The experiment is classed as functional, organism-based.
Conditions: not given
For `Cc1cc(CCCCCOc2c(Cl)cc(-c3ccoc3)cc2Cl)on1`, the MIC entry was “inactive”.
Consider `Cc1cc(CCCCCOc2c(Cl)cc(-c3cnco3)cc2Cl)on1`, for which the MIC entry is “inactive”.
Same read-out and setting: under `CCc1cc(C2=NCCO2)cc(C)c1OCCCCCc1cc(C)no1` stands “inactive”; under `Cc1cc(CCCCCOc2c(C)cc(-c3ccoc3)cc2C)on1`, “inactive”; under `Cc1cc(CCCCCOc2c(Cl)cc(C3=NCCO3)cc2C(C)(C)C)on1`, “inactive”.
The same measure, in the same setting: for `Cc1cc(CCCCCOc2c(C)cc(-c3ccco3)cc2C)on1` the value was “inactive”; for `Cc1cc(CCCCCOc2ccc(C3=NCCO3)cc2N(C)C)on1`, “inactive”.
